Data from article PMC7217150, “Synthesis, Modification, and Biological Evaluation of a Library of Novel Water‐Soluble Thiopyridone‐Based Organometallic Complexes and Their Unexpected (Biological) Behavior” (Chemistry (Weinheim an Der Bergstrasse, Germany), 2020).

Legend:
Type in all cases: cell-based, human
SW480 [1] = assay: MTT cytotoxicity assay, monolayer culture; settings: SW480, MTT assay, exposure time 96 h, means ± SDs
Source text: (§1) A549 (non‐small cell lung carcinoma), SW480 and HCT‐116 (both colon carcinoma) were kindly provided by Brigitte Marian, Institute of Cancer Research, Department of Medicine I, Medical University of Vienna, Austria. The cell line CH1/PA‐1 (ovarian teratocarcinoma) was kindly provided by Lloyd R. Kelland (CRC Centre for Cancer Therapeutics, Institute of Cancer Research, Sutton, UK). All cell culture media (including supplements) and reagents were obtained from Sigma–Aldrich, and all plasticware from StarLab, unless indicated otherwise.

CH1/PA‐1 [2] = assay: MTT cytotoxicity assay, monolayer culture; settings: CH1/PA‐1, MTT assay, exposure time 96 h, means ± SDs
Source text: as §1

A549 = assay: MTT cytotoxicity assay, monolayer culture; settings: exposure time 96 h, means ± SDs
Source text: as §1

SW480 [3] = assay: Cell cycle distribution, flow cytometry with propidium iodide; settings: for Cell cycle distribution G1, % / Cell cycle distribution G2/M, % / Cell cycle distribution S, %: 24 h, mean ± SD; for Relative change in cell cycle distribution G1, % / Relative change in cell cycle distribution G2/M, % / Relative change in cell cycle distribution S, %: difference to untreated control
Protocol: (§2) The influence of two ligands, as well as seven complexes on cell cycle distribution was tested in two of the cancer cell lines (SW480, CH1/PA‐1) by means of flow cytometry. The cell cycle distribution (G1, S, G2/M phase in %; Table S37) was investigated upon DNA staining with propidium iodide.
(§3) CH1/PA‐1 and SW480 cells were harvested by trypsinization, 8×10^4 and 1.2×10^5 cells per well were seeded into 12‐well plates, respectively. The cells were allowed to attach and resume proliferation for 24 h after the seeding. […] After continuous exposure for 24 h at 37 °C and under 5 % CO2, the cells were harvested by trypsinization and centrifuged at 300 g for 3 min. The cells were washed with PBS (1 mL) and resuspended in propidium iodine (PI) containing HSF buffer (600 μL; 0.1 % Triton X‐100, 0.1 % sodium citrate, 50 μg mL^−1 PI in PBS). After incubation overnight at 4 °C in the dark, 5×10^3 cells were measured by flow cytometry with a Millipore Guava easyCyte 8HT instrument (Luminex, USA). Data were evaluated by means of FlowJo software (Tree Star) using Watson Pragmatic algorithms.60 The fitting of the curve was chosen to keep the root mean square error between 1.0 and 2.0, alongside with good fitting visual model.

CH1/PA‐1 [4] = assay: as above; settings: for Cell cycle distribution G1, % / Cell cycle distribution G2/M, % / Cell cycle distribution S, %: 24 h, mean ± SD; for Relative change in cell cycle distribution G1, % / Relative change in cell cycle distribution G2/M, % / Relative change in cell cycle distribution S, %: difference to untreated control
Protocol: as §2, §3

## CC1=C2[O][Rh+]([Cl])[S]=C2C=CN1c1cccc2ccccc12.Cc1c(C)c(C)[c-](C)c1C [Compound 5 d, Chlorido[1‐(naphthalene‐1‐yl)‐2‐methyl‐3‐oxo‐κO‐pyridine‐4(1H)‐thionato‐κS](η^5‐1,2,3,4,5‐pentamethylcyclopentadienyl)rhodium(III)]
SW480 [1]
  IC50: 1000 ± 100 nM
CH1/PA‐1 [2]
  IC50: 480 ± 60 nM
A549
  IC50: 1300 ± 200 nM
SW480 [3]; SW480, 2.5 µM
  Cell cycle distribution G1, %: 38 ± 12%
  Cell cycle distribution G2/M, %: 22 ± 8%
  Cell cycle distribution S, %: 40 ± 3%
  Relative change in cell cycle distribution G1, %: -10%
  Relative change in cell cycle distribution G2/M, %: 3%
  Relative change in cell cycle distribution S, %: 7%
SW480 [3]; SW480, 5 µM
  Cell cycle distribution G1, %: 43 ± 10%
  Cell cycle distribution G2/M, %: 20 ± 3%
  Cell cycle distribution S, %: 37 ± 8%
  Relative change in cell cycle distribution G1, %: -5%
  Relative change in cell cycle distribution G2/M, %: 1%
  Relative change in cell cycle distribution S, %: 4%
SW480 [3]; SW480, 10 µM
  Cell cycle distribution G1, %: 48 ± 10%
  Cell cycle distribution G2/M, %: 18 ± 1%
  Cell cycle distribution S, %: 34 ± 9%
  Relative change in cell cycle distribution G1, %: 0%
  Relative change in cell cycle distribution G2/M, %: -1%
  Relative change in cell cycle distribution S, %: 1%
CH1/PA‐1 [4]; CH1/PA-1, 1.25 µM
  Cell cycle distribution G1, %: 40 ± 10%
  Cell cycle distribution G2/M, %: 16 ± 9%
  Cell cycle distribution S, %: 44 ± 3%
  Relative change in cell cycle distribution G1, %: 0%
  Relative change in cell cycle distribution G2/M, %: -8%
  Relative change in cell cycle distribution S, %: 8%
CH1/PA‐1 [4]; CH1/PA-1, 2.5 µM
  Cell cycle distribution G1, %: 38 ± 5%
  Cell cycle distribution G2/M, %: 27 ± 8%
  Cell cycle distribution S, %: 36 ± 7%
  Relative change in cell cycle distribution G1, %: -2%
  Relative change in cell cycle distribution G2/M, %: 3%
  Relative change in cell cycle distribution S, %: 0%
CH1/PA‐1 [4]; CH1/PA-1, 5 µM
  Cell cycle distribution G1, %: 39 ± 6%
  Cell cycle distribution G2/M, %: 22 ± 5%
  Cell cycle distribution S, %: 40 ± 2%
  Relative change in cell cycle distribution G1, %: -1%
  Relative change in cell cycle distribution G2/M, %: -2%
  Relative change in cell cycle distribution S, %: 4%

## Chlorido[1‐phenyl‐2‐methyl‐3‐oxo‐κO‐pyridine‐4(1H)‐thionato‐κS](η^5‐1,2,3,4,5‐pentamethylcyclopentadienyl)rhodium(III) [Compound 5 b]
SW480 [1]
  IC50: 670 ± 40 nM
CH1/PA‐1 [2]
  IC50: 660 ± 80 nM
A549
  IC50: 2000 ± 800 nM
SW480 [3]; SW480, 2.5 µM
  Cell cycle distribution G1, %: 37 ± 17%
  Cell cycle distribution G2/M, %: 23 ± 7%
  Cell cycle distribution S, %: 40 ± 11%
  Relative change in cell cycle distribution G1, %: -11%
  Relative change in cell cycle distribution G2/M, %: 4%
  Relative change in cell cycle distribution S, %: 7%
SW480 [3]; SW480, 5 µM
  Cell cycle distribution G1, %: 26 ± 13%
  Cell cycle distribution G2/M, %: 27 ± 9%
  Cell cycle distribution S, %: 48 ± 7%
  Relative change in cell cycle distribution G1, %: -22%
  Relative change in cell cycle distribution G2/M, %: 8%
  Relative change in cell cycle distribution S, %: 15%
SW480 [3]; SW480, 10 µM
  Cell cycle distribution G1, %: 34 ± 10%
  Cell cycle distribution G2/M, %: 17 ± 6%
  Cell cycle distribution S, %: 49 ± 8%
  Relative change in cell cycle distribution G1, %: -14%
  Relative change in cell cycle distribution G2/M, %: -2%
  Relative change in cell cycle distribution S, %: 16%
SW480 [3]; SW480 cells, 5 μM
  G1 phase decrease: more than 20%
CH1/PA‐1 [4]; CH1/PA-1, 2.5 µM
  Cell cycle distribution G1, %: 22 ± 2%
  Cell cycle distribution S, %: 43 ± 9%
  Relative change in cell cycle distribution G1, %: -18%
  Relative change in cell cycle distribution G2/M, %: 11%
  Relative change in cell cycle distribution S, %: 7%
CH1/PA‐1 [4]; CH1/PA-1, 5 µM
  Cell cycle distribution G1, %: 22 ± 6%
  Cell cycle distribution G2/M, %: 41 ± 4%
  Cell cycle distribution S, %: 37 ± 5%
  Relative change in cell cycle distribution G1, %: -18%
  Relative change in cell cycle distribution G2/M, %: 17%
  Relative change in cell cycle distribution S, %: 1%
CH1/PA‐1 [4]; CH1/PA-1, 10 µM
  Cell cycle distribution G1, %: 19 ± 7%
  Cell cycle distribution G2/M, %: 39 ± 5%
  Cell cycle distribution S, %: 42 ± 1%
  Relative change in cell cycle distribution G1, %: -21%
  Relative change in cell cycle distribution G2/M, %: 15%
  Relative change in cell cycle distribution S, %: 6%
CH1/PA‐1 [4]; CH1/PA‐1 cells, 10 μM
  decrease in G1 phase: more than 20%
